Reference: the NIST ThermoML archive (doi:10.1016/j.jct.2008.04.002)
Numbers after ± are expanded uncertainties.

Experiment: activity coefficient (dimensionless); of the first substance listed, at infinite dilution; xn = mol fraction of the nth substance listed
Settings: Liquid, Chromatography, x1 = 0

Compound | activity coefficient (303.15 K) | activity coefficient (308.15 K) | activity coefficient (313.15 K) | activity coefficient (318.15 K)
C1CCCCCC1 [cycloheptane] + CC(CC(C)(C)C)CP(=O)([O-])CC(C)CC(C)(C)C.CCCCCCCCCCCCCC[P+](CCCCCC)(CCCCCC)CCCCCC | 0.56 ± 0.05 | 0.56 ± 0.05 | 0.58 ± 0.05 | 0.6 ± 0.05
c1ccccc1 [benzene] + CC(CC(C)(C)C)CP(=O)([O-])CC(C)CC(C)(C)C.CCCCCCCCCCCCCC[P+](CCCCCC)(CCCCCC)CCCCCC | 0.44 ± 0.04 | 0.47 ± 0.04 | 0.48 ± 0.05 | 0.49 ± 0.05
C#CCCCCC [1-heptyne] + CC(CC(C)(C)C)CP(=O)([O-])CC(C)CC(C)(C)C.CCCCCCCCCCCCCC[P+](CCCCCC)(CCCCCC)CCCCCC | 0.33 ± 0.04 | 0.35 ± 0.04 | 0.39 ± 0.04 | 0.41 ± 0.04
CCCCCC [hexane] + CC(CC(C)(C)C)CP(=O)([O-])CC(C)CC(C)(C)C.CCCCCCCCCCCCCC[P+](CCCCCC)(CCCCCC)CCCCCC | 0.71 ± 0.06 | 0.73 ± 0.06 | 0.73 ± 0.06 | 0.75 ± 0.06
C=CCCCC [hex-1-ene] + CC(CC(C)(C)C)CP(=O)([O-])CC(C)CC(C)(C)C.CCCCCCCCCCCCCC[P+](CCCCCC)(CCCCCC)CCCCCC | 0.63 ± 0.06 | 0.65 ± 0.06 | 0.68 ± 0.06 | 0.7 ± 0.06
C=CCCCCCC [oct-1-ene] + CC(CC(C)(C)C)CP(=O)([O-])CC(C)CC(C)(C)C.CCCCCCCCCCCCCC[P+](CCCCCC)(CCCCCC)CCCCCC | 0.75 ± 0.06 | 0.76 ± 0.06 | 0.78 ± 0.07 | 0.81 ± 0.07
CCCCCCC [heptane] + CC(CC(C)(C)C)CP(=O)([O-])CC(C)CC(C)(C)C.CCCCCCCCCCCCCC[P+](CCCCCC)(CCCCCC)CCCCCC | 0.77 ± 0.07 | 0.79 ± 0.07 | 0.81 ± 0.07 | 0.83 ± 0.07
C1CCCC1 [cyclopentane] + CC(CC(C)(C)C)CP(=O)([O-])CC(C)CC(C)(C)C.CCCCCCCCCCCCCC[P+](CCCCCC)(CCCCCC)CCCCCC | 0.45 ± 0.04 | 0.46 ± 0.04 | 0.48 ± 0.05 | 0.5 ± 0.05
CCCCCCCC [octane] + CC(CC(C)(C)C)CP(=O)([O-])CC(C)CC(C)(C)C.CCCCCCCCCCCCCC[P+](CCCCCC)(CCCCCC)CCCCCC | 0.79 ± 0.07 | 0.82 ± 0.07 | 0.85 ± 0.07 | 0.86 ± 0.07
C#CCCCCCC [1-octyne] + CC(CC(C)(C)C)CP(=O)([O-])CC(C)CC(C)(C)C.CCCCCCCCCCCCCC[P+](CCCCCC)(CCCCCC)CCCCCC | 0.28 ± 0.03 | 0.33 ± 0.04 | 0.36 ± 0.04 | 0.39 ± 0.04
C1CCCCC1 [cyclohexane] + CC(CC(C)(C)C)CP(=O)([O-])CC(C)CC(C)(C)C.CCCCCCCCCCCCCC[P+](CCCCCC)(CCCCCC)CCCCCC | 0.51 ± 0.05 | 0.52 ± 0.05 | 0.54 ± 0.05 | 0.56 ± 0.05
C#CCCCC [1-hexyne] + CC(CC(C)(C)C)CP(=O)([O-])CC(C)CC(C)(C)C.CCCCCCCCCCCCCC[P+](CCCCCC)(CCCCCC)CCCCCC | 0.38 ± 0.04 | 0.4 ± 0.04 | 0.43 ± 0.04 | 0.46 ± 0.04
CCCCC [pentane] + CC(CC(C)(C)C)CP(=O)([O-])CC(C)CC(C)(C)C.CCCCCCCCCCCCCC[P+](CCCCCC)(CCCCCC)CCCCCC | 0.66 ± 0.06 | 0.69 ± 0.06 | 0.7 ± 0.06 | 0.71 ± 0.06
C=CCCC [1-pentene] + CC(CC(C)(C)C)CP(=O)([O-])CC(C)CC(C)(C)C.CCCCCCCCCCCCCC[P+](CCCCCC)(CCCCCC)CCCCCC | 0.59 ± 0.05 | 0.61 ± 0.05 | 0.62 ± 0.05 | 0.64 ± 0.06
